Assay results from patent publication US9339463B2, “Micronized opioid compositions having a specific particle size distribution” (priority 2007, dated 2016).
Values joined by “and” are separate entries in the source; they are usually repeats but may differ in a detail not shown here. Equal values may be shown once.

How the values were obtained:
Assay type in all cases: physicochemical
[1] = Physical stability on storage: particle size (Dv90) by laser diffraction
[2] = Particle size distribution by laser diffraction (Malvern Mastersizer 2000), oxycodone base
[3] = Particle size by optical microscopy, number % undersize; conditions: mean diameter
Description: As a secondary analytical method, the micronized and the non-micronized oxycodone analyzed by laser diffraction with results shown in Table 1, were analyzed by optical microscopy to evaluate particle size and the results are shown in Table 2. Sample aliquots (˜50 mg for micronized and ˜225 mg for non-micronized) were dispersed in 10 ml of sunflower oil and viewed on a Nikon microscope equipped with a 10× objective. Particle size (mean diameter) was determined using Image Pro® Plus software and expressed as a number % undersize. The particle size values determined by optical microscopy as shown in Table 2 are consistent with the laser diffraction particle size data shown in Table 1.

[4] = Chemical stability on storage: assay and impurities
Description: Samples of Example 2 and additional samples comprising micronized and non-micronized oxycodone useful for exemplary dosage forms are tested for their chemical stability and physical stability. Based on a comparison of stability data from micronized and non-micronized samples stored at both 25° C./60% RH and 40 C.°/75% RH, no differences are observed in the impurity profile through three months of study as shown in Tables 4 and 5 for exemplary lots. The impurities analyzed include (HOXY), 14-Hydroxycodeinone; (DHOXYN), 7,8-Dihydro-8,14-Dihydroxycodeinone; (DHOXY), 7,8-Dihydro-14-hydroxycodeine; (OXYE), Oxycodone ethylenolate; (OXYN), 1-Hydroxyoxycodone and Oxycodone N-oxide. Most of the impurities are found to be below the limit of quantitation (LOQ), except for HOXY and DHOXYN which were unchanged at 0.1%. […] The solid state stability of the micronized oxycodone is monitored for particle size, XRPD, DSC, and microscopy as shown in Table 6.

[5] = 1 month, stored, including at 25° C./60% RH and/or 40° C./75% RH (not specified)
[6] = 3 months, stored, including at 25° C./60% RH and/or 40° C./75% RH (not specified)
[7] = 6 months, stored, including at 25° C./60% RH and/or 40° C./75% RH (not specified)
[8] = 9 months, stored, including at 25° C./60% RH and/or 40° C./75% RH (not specified)
[9] = 12 months, stored, including at 25° C./60% RH and/or 40° C./75% RH (not specified)
[10] = Table 1 analysis, lot 2 in duplicate
[11] = additional laser diffraction analysis, Table 3
[12] = Time 0, listed as Non-micronized Oxycodone Free Base

COc1ccc2c3c1O[C@H]1C(=O)CC[C@@]4(O)[C@@H](C2)N(C)CC[C@]314 [second high purity lot, oxycodone]
Particle size (Dv90) [1, 5]: 4 μ
Particle size (Dv90) [1, 6]: 4 μ
Particle size (Dv90) [1, 7]: 5 μ
Particle size (Dv90) [1, 8]: 5 μ
Particle size (Dv90) [1, 9]: 5 μ
Particle size (Dv90) ([1]; 25° C./60% RH, 1 month, listed as second high purity micronized lot): 4 μ
Particle size (Dv90) ([1]; 25° C./60% RH, 3 months, listed as second high purity micronized lot): 4 μ
Particle size (Dv90) ([1]; 25° C./60% RH, 6 months, listed as second high purity micronized lot): 6 μ
Particle size (Dv90) ([1]; 25° C./60% RH, 9 months, listed as second high purity micronized lot): 5 μ
Particle size (Dv90) ([1]; 25° C./60% RH, 12 months, listed as second high purity micronized lot): 6 μ
Particle size (Dv90) ([1]; 40° C./75% RH, 1 month, listed as second high purity micronized lot): 5 μ
Particle size (Dv90) ([1]; 40° C./75% RH, 3 months, listed as second high purity micronized lot): 5 μ
Particle size (Dv90) ([1]; 40° C./75% RH, 6 months, listed as second high purity micronized lot): 6 μ
Particle size (Dv90) ([1]; Time 0): 4 μ
Particle size (Dv90) ([1]; Time 0, listed as second high purity micronized lot): 4 μ

COc1ccc2c3c1O[C@H]1C(=O)CC[C@@]4(O)[C@@H](C2)N(C)CC[C@]314 [first lot, oxycodone]
Particle size (Dv90) ([1]; 25° C./60% RH, 6 months): 7 μ
Particle size (Dv90) ([1]; 25° C./60% RH, 9 months): 6 μ
Particle size (Dv90) ([1]; 25° C./60% RH, 12 months): 7 μ
Particle size (Dv90) ([1]; Time 0): 6 μ

COc1ccc2c3c1O[C@H]1C(=O)CC[C@@]4(O)[C@@H](C2)N(C)CC[C@]314 [micronized oxycodone preparation, oxycodone]
Particle size (Dv90) ([1]; Time 0): 5-6 μ
Particle size (Dv90 at three months) ([1]; stored at 25° C./60% RH and 40°/75% RH, 3 months): 6-11 μ

COc1ccc2c3c1O[C@H]1C(=O)CC[C@@]4(O)[C@@H](C2)N(C)CC[C@]314 [Lot 2 (waste), oxycodone]
Particle size (Dv10) [2, 10]: 0.5, 0.5 μ
Particle size (Dv50) [2, 10]: 1.6 μ and 2.3 μ
Particle size (Dv90) [2, 10]: 3.3 μ and 4.9 μ

COc1ccc2c3c1O[C@H]1C(=O)CC[C@@]4(O)[C@@H](C2)N(C)CC[C@]314 [first high purity lot, oxycodone]
Particle size (Dv90) [1, 5]: 5 μ
Particle size (Dv90) [1, 6]: 5 μ
Particle size (Dv90) [1, 7]: 5 μ
Particle size (Dv90) [1, 8]: 6 μ
Particle size (Dv90) [1, 9]: 6 μ
Particle size (Dv90) ([1]; 25° C./60% RH, 1 month, listed as first high purity micronized lot): 4 μ
Particle size (Dv90) ([1]; 25° C./60% RH, 3 months, listed as first high purity micronized lot): 5 μ
Particle size (Dv90) ([1]; 25° C./60% RH, 6 months, listed as first high purity micronized lot): 5 μ
Particle size (Dv90) ([1]; 25° C./60% RH, 9 months, listed as first high purity micronized lot): 7 μ
Particle size (Dv90) ([1]; 25° C./60% RH, 12 months, listed as first high purity micronized lot): 6 μ
Particle size (Dv90) ([1]; 40° C./75% RH, 1 month, listed as first high purity micronized lot): 5 μ
Particle size (Dv90) ([1]; 40° C./75% RH, 3 months, listed as first high purity micronized lot): 5 μ
Particle size (Dv90) ([1]; 40° C./75% RH, 6 months, listed as first high purity micronized lot): 5 μ
Particle size (Dv90) ([1]; Time 0): 4 μ
Particle size (Dv90) ([1]; Time 0, listed as first high purity micronized lot): 4 μ

COc1ccc2c3c1O[C@H]1C(=O)CC[C@@]4(O)[C@@H](C2)N(C)CC[C@]314 [third lot, oxycodone]
Particle size (Dv90) ([1]; 25° C./60% RH, 6 months): 6 μ
Particle size (Dv90) ([1]; 25° C./60% RH, 9 months): 6 μ
Particle size (Dv90) ([1]; 25° C./60% RH, 12 months): 7 μ
Particle size (Dv90) ([1]; Time 0): 4 μ

COc1ccc2c3c1O[C@H]1C(=O)CC[C@@]4(O)[C@@H](C2)N(C)CC[C@]314 [Non-micronized, oxycodone]
Particle size (Dv10) [2, 10]: 5.7 μ
Particle size (Dv50) [2, 10]: 20.5 μ
Particle size (Dv90) [2, 10]: 55.5 μ
Particle size (Dv90) ([2]; Table 1 analysis, lot 2 in duplicate, listed as non-micronized sample): 56 μ
Particle size (Dv10) [2, 11]: 4.9 μ
Particle size (Dv50) [2, 11]: 20.1 μ
Particle size (Dv90) [2, 11]: 50.9 μ
Particle size (Dv90) ([2]; additional laser diffraction analysis, Table 3, listed as non-micronized): 51 μ
mean particle size ([2]; oxycodone base before micronization): 51 μ
% ≦ 1μ [3]: 21.4%
% ≦ 5μ [3]: 50.7%
% ≦ 10μ [3]: 69.1%
1-HydroxyOXY ([4]; 25° C./60% RH, 1 mo): <LOQ
DHOXY (7,8-Dihydro-14-hydroxycodeine) ([4]; 25° C./60% RH, 1 mo): <LOQ
DHOXYN (7,8-Dihydro-8,14-Dihydroxycodeinone) ([4]; 25° C./60% RH, 1 mo): 0.10%
HOXY (14-Hydroxycodeinone) ([4]; 25° C./60% RH, 1 mo): 0.08%
OXYE (Oxycodone ethylenolate) ([4]; 25° C./60% RH, 1 mo): <LOQ
OXYN ([4]; 25° C./60% RH, 1 mo): <LOQ
Other (impurities; Table 5: >0.05%) ([4]; 25° C./60% RH, 1 mo): <LOQ
Total impurities ([4]; 25° C./60% RH, 1 mo): 0.18%
Assay ([4]; 25° C./60% RH, 1 mo, listed as Non-micronized Oxycodone Free Base): 99.6%
1-HydroxyOXY ([4]; 25° C./60% RH, 3 mo): <LOQ
DHOXY (7,8-Dihydro-14-hydroxycodeine) ([4]; 25° C./60% RH, 3 mo): <LOQ
DHOXYN (7,8-Dihydro-8,14-Dihydroxycodeinone) ([4]; 25° C./60% RH, 3 mo): 0.10%
HOXY (14-Hydroxycodeinone) ([4]; 25° C./60% RH, 3 mo): 0.08%
OXYE (Oxycodone ethylenolate) ([4]; 25° C./60% RH, 3 mo): <LOQ
OXYN ([4]; 25° C./60% RH, 3 mo): <LOQ
Other (impurities; Table 5: >0.05%) ([4]; 25° C./60% RH, 3 mo): <LOQ
Total impurities ([4]; 25° C./60% RH, 3 mo): 0.18%
Assay ([4]; 25° C./60% RH, 3 mo, listed as Non-micronized Oxycodone Free Base): 99.6%
1-HydroxyOXY ([4]; 40° C./75% RH, 1 mo): <LOQ
DHOXY (7,8-Dihydro-14-hydroxycodeine) ([4]; 40° C./75% RH, 1 mo): <LOQ
DHOXYN (7,8-Dihydro-8,14-Dihydroxycodeinone) ([4]; 40° C./75% RH, 1 mo): 0.10%
HOXY (14-Hydroxycodeinone) ([4]; 40° C./75% RH, 1 mo): 0.08%
OXYE (Oxycodone ethylenolate) ([4]; 40° C./75% RH, 1 mo): <LOQ
OXYN ([4]; 40° C./75% RH, 1 mo): <LOQ
Total impurities ([4]; 40° C./75% RH, 1 mo): 0.18%
Assay ([4]; 40° C./75% RH, 1 mo, listed as Non-micronized Oxycodone Free Base): 99.6%
1-HydroxyOXY ([4]; 40° C./75% RH, 3 mo): <LOQ
DHOXY (7,8-Dihydro-14-hydroxycodeine) ([4]; 40° C./75% RH, 3 mo): <LOQ
DHOXYN (7,8-Dihydro-8,14-Dihydroxycodeinone) ([4]; 40° C./75% RH, 3 mo): 0.10%
HOXY (14-Hydroxycodeinone) ([4]; 40° C./75% RH, 3 mo): 0.08%
OXYE (Oxycodone ethylenolate) ([4]; 40° C./75% RH, 3 mo): <LOQ
OXYN ([4]; 40° C./75% RH, 3 mo): <LOQ
Other (impurities; Table 5: >0.05%) ([4]; 40° C./75% RH, 3 mo): <LOQ
Total impurities ([4]; 40° C./75% RH, 3 mo): 0.18%
Assay ([4]; 40° C./75% RH, 3 mo, listed as Non-micronized Oxycodone Free Base): 99.5%
1-HydroxyOXY ([4]; Time 0): <LOQ
DHOXY (7,8-Dihydro-14-hydroxycodeine) ([4]; Time 0): <LOQ
OXYE (Oxycodone ethylenolate) ([4]; Time 0): <LOQ
OXYN ([4]; Time 0): <LOQ
Other (impurities; Table 5: >0.05%) ([4]; Time 0): <LOQ
Total impurities ([4]; Time 0): 0.18%
Assay [4, 12]: 101.1%
DHOXYN (7,8-Dihydro-8,14-Dihydroxycodeinone) [4, 12]: 0.10%
HOXY (14-Hydroxycodeinone) [4, 12]: 0.08%

COc1ccc2c3c1O[C@H]1C(=O)CC[C@@]4(O)[C@@H](C2)N(C)CC[C@]314 [second lot, oxycodone]
Particle size (Dv90) ([1]; 25° C./60% RH, 6 months): 5 μ
Particle size (Dv90) ([1]; 25° C./60% RH, 9 months): 6 μ
Particle size (Dv90) ([1]; 25° C./60% RH, 12 months): 6 μ
Particle size (Dv90) ([1]; Time 0): 4 μ

COc1ccc2c3c1O[C@H]1C(=O)CC[C@@]4(O)[C@@H](C2)N(C)CC[C@]314 [third high purity lot, oxycodone]
Particle size (Dv90) [1, 5]: 4 μ
Particle size (Dv90) [1, 6]: 4 μ
Particle size (Dv90) [1, 7]: 5 μ
Particle size (Dv90) [1, 8]: 5 μ
Particle size (Dv90) [1, 9]: 5 μ
Particle size (Dv90) ([1]; 25° C./60% RH, 1 month, listed as third high purity micronized lot): 4 μ
Particle size (Dv90) ([1]; 25° C./60% RH, 3 months, listed as third high purity micronized lot): 4 μ
Particle size (Dv90) ([1]; 25° C./60% RH, 6 months, listed as third high purity micronized lot): 5 μ
Particle size (Dv90) ([1]; 25° C./60% RH, 9 months, listed as third high purity micronized lot): 5 μ
Particle size (Dv90) ([1]; 25° C./60% RH, 12 months, listed as third high purity micronized lot): 5 μ
Particle size (Dv90) ([1]; 40° C./75% RH, 1 month, listed as third high purity micronized lot): 4 μ
Particle size (Dv90) ([1]; 40° C./75% RH, 3 months, listed as third high purity micronized lot): 5 μ
Particle size (Dv90) ([1]; 40° C./75% RH, 6 months, listed as third high purity micronized lot): 5 μ
Particle size (Dv90) ([1]; Time 0): 5 μ
Particle size (Dv90) ([1]; Time 0, listed as third high purity micronized lot): 5 μ
